Assay results: ChEMBL document CHEMBL5036314, “Structure-Guided Design of the First Noncovalent Small-Molecule Inhibitor of CRM1” (J Med Chem, 2021)
The source made the active and inactive calls. The calls are words filed in the database; no cut-off is given here.

How the values were obtained:
HeLa [1] = test: Anti-cancer activity against human HeLa cells assessed as cell viability at 20 uM incubated for 2 hrs by EdU incorporation based assay; assay type: functional
PANC-1 = test: Anti-cancer activity against human PANC-1 cells assessed as cell survival at 10 uM for 72 hrs replaced with compound containing fresh culture medium every 12 hrs by Sulforhodamine B assay; assay type: functional, cell-based
HCT-116 = test: Anti-cancer activity against human HCT-116 cells assessed as cell survival at 10 uM for 72 hrs replaced with compound containing fresh culture medium every 12 hrs by Sulforhodamine B assay; assay type: functional, cell-based
A549 = test: Anti-cancer activity against human A549 cells assessed as cell survival at 10 uM for 72 hrs replaced with compound containing fresh culture medium every 12 hrs by Sulforhodamine B assay; assay type: functional, cell-based
HGC-27 = test: Anti-cancer activity against human HGC-27 cells assessed as cell survival at 10 uM for 72 hrs replaced with compound containing fresh culture medium every 12 hrs by Sulforhodamine B assay; assay type: functional, cell-based
MGC-803 = test: Anti-cancer activity against human MGC-803 cells assessed as cell survival at 10 uM for 72 hrs replaced with compound containing fresh culture medium every 12 hrs by Sulforhodamine B assay; assay type: functional, cell-based
HeLa [2] = test: Binding affinity to human CRM1 C528S mutant transfected HeLa cells assessed as inhibition of nuclear export of cargoes at 2 uM incubated for 12 hrs by confocal microscope analysis; assay type: cell-based
HeLa [3] = test: Cytotoxicity against human HeLa cells transfected with hCRM1-C528S-mutant assessed as cell viability measured for 72 hrs replaced with compound containing fresh culture medium every 12 hrs by Sulforhodamine B assay; assay type: functional, cell-based
Huh-7 = test: Anti-cancer activity against human HuH-7 cells assessed as cell survival at 10 uM for 72 hrs replaced with compound containing fresh culture medium every 12 hrs by Sulforhodamine B assay; assay type: functional, cell-based
HepG2 = test: Anti-cancer activity against human HepG2 cells assessed as cell survival at 10 uM for 72 hrs replaced with compound containing fresh culture medium every 12 hrs by Sulforhodamine B assay; assay type: functional, cell-based
HeLa [4] = test: Anti-cancer activity against human HeLa cells assessed as cell survival at 10 uM for 72 hrs replaced with compound containing fresh culture medium every 12 hrs by Sulforhodamine B assay; assay type: functional, cell-based
Exportin-1 = Exportin-1 (Homo sapiens, UniProt O14980); test: Binding affinity to wild type human CRM1 transfected HeLa cells assessed as inhibition of nuclear export of cargoes at 2 uM incubated for 12 hrs by confocal microscope analysis; assay type: cell-based
Exportin-1, sequence (O14980 whole entry): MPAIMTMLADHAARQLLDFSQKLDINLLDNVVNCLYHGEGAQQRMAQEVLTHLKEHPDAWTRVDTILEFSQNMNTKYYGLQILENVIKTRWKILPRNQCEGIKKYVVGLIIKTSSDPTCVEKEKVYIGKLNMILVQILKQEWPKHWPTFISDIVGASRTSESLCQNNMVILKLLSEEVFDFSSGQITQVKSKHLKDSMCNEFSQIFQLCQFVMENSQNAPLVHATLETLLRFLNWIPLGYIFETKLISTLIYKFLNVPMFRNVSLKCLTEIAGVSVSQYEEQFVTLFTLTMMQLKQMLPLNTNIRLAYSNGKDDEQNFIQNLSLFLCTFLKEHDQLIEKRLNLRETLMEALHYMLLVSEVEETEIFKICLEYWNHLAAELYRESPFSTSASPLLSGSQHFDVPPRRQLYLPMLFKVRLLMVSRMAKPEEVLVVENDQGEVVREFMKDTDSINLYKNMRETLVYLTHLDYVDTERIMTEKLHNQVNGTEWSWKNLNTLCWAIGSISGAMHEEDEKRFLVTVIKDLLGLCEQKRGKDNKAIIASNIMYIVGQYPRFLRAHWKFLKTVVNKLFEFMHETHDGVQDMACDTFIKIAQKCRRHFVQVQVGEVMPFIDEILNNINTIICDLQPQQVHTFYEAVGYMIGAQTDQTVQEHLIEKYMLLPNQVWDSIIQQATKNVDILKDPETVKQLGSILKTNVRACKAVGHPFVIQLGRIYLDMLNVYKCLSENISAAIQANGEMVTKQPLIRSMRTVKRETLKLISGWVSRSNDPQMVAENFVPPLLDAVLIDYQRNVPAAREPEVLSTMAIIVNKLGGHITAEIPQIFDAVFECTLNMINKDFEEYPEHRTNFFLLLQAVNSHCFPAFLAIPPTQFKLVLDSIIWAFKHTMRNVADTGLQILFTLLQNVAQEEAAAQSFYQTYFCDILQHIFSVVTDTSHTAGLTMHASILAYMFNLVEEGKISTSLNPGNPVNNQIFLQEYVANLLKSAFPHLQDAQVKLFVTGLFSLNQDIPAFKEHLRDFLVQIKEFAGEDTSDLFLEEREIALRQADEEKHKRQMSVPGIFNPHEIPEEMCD

A2780 = test: Anti-cancer activity against human A2780 cells assessed as cell survival at 10 uM for 72 hrs replaced with compound containing fresh culture medium every 12 hrs by Sulforhodamine B assay; assay type: functional, cell-based
Saccharomyces cerevisiae = test: Inhibition of NES binding to yeast CRM1-T539 mutant in absence of RanGTP at 20 uM by pull down assay
SW48 = test: Anti-cancer activity against human SW48 cells assessed as cell survival at 10 uM for 72 hrs replaced with compound containing fresh culture medium every 12 hrs by Sulforhodamine B assay; assay type: functional, cell-based
[5] = molecular target: Exportin-1 (Saccharomyces cerevisiae) (UniProt P30822); test: Inhibition of GST-NES MVM binding to yeast CRM1 at 20 uM by pull down assay

SMILES	Activity (HeLa [1])	Activity (PANC-1)	Activity (HCT-116)	Activity (A549)	Activity (HGC-27)	Activity (MGC-803)	inhibition (HeLa [2])	Activity (HeLa [3])	Activity (Huh-7)	Activity (HepG2)	Activity (HeLa [4])	inhibition (Exportin-1)	Activity (A2780)	inhibition (Saccharomyces cerevisiae)	Activity (SW48)	inhibition [5]
CC(C)CCNC/C=C/Sc1cc(C(F)(F)F)cc(C(F)(F)F)c1	inactive															
O=C(/C=C\n1cnc(-c2cc(C(F)(F)F)cc(C(F)(F)F)c2)n1)NNc1cnccn1		Active	Active	Active	Active	Active	inactive	inactive	Active	Active	Active	inactive	Active	inactive	Active	
CC(C)CCNc1cc(C[S+]([O-])c2cc(C(F)(F)F)cc(C(F)(F)F)c2)on1 (centres undefined)	inactive															inactive
CC1=C(COCCC(C)(C)C)C(=O)N(Nc2ccc(C(F)(F)F)c(Cl)n2)C1=O		Active	Active	Active	Active	Active			Active	Active	Active		Active		Active	
[O-][S+](Cc1ccnc(Cl)c1)c1cc(C(F)(F)F)cc(C(F)(F)F)c1 (centres undefined)	inactive															inactive
